Results published in publication PMC8725537, “Assessment of NSAIDs as potential inhibitors of the fatty acid amide hydrolase I (FAAH-1) using three different primary fatty acid amide substrates in vitro” (BMC Pharmacology & Toxicology, 2022).
Read-outs that look alike come from different tables or passages of the source. Each block holds one molecule with its values, some of them ahead of it.

Key:
FAAH-1 [1] = biological target: T1, FAAH-1 (Rattus norvegicus, UniProt P97612); experiment: Inhibition of rat liver FAAH-1 oleamide hydrolase activity by NSAIDs (500 μM screen and concentration-inhibition curves); format: biochemical; conditions: for FAAH-1 oleamide hydrolase activity, % of control: 500 μM NSAID, oleamide substrate, rat liver
T1 construct: Liver obtained from male Wister rats; from tissue; host or cells: rat liver homogenate, 20,000 g membrane pellet (male Wistar rats, Charles River Laboratories)
T1 sequence (P97612 1-579): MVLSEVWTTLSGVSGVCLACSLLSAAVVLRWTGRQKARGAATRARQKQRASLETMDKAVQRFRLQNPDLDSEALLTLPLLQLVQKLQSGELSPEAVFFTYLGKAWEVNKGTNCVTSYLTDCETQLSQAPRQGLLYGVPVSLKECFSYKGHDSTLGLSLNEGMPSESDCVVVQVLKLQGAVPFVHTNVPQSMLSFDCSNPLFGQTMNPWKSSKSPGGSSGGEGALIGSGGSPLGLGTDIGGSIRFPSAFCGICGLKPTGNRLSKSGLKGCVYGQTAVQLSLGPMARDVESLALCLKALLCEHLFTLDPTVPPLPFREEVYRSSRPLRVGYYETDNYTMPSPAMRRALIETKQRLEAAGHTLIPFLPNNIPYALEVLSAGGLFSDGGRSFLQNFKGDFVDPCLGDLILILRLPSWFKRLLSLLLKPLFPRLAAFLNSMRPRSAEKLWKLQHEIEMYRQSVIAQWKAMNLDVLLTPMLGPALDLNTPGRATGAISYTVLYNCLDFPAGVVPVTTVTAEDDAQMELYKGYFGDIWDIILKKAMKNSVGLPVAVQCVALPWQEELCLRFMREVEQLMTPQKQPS
Method: (§1) FAAH-1 activity was studied in rat liver homogenate.
(§2) Liver obtained from male Wister rats (150–250 g, Charles River Laboratories, Wilmington, USA) which had been stored at − 40 °C was thawed. A volume of 6 ml/g wet weight of rat liver was homogenized in 0.2 M potassium phosphate buffer, pH 7.4 using a hand held homogenizer (Ultra-turrax) (Merck KGaA, Darmstadt, Germany). The resulting mixture was centrifuged at 250 g for 10 min after which the pellet obtained was re-homogenised and centrifuged as aforementioned. The supernatants were combined and centrifuged at 20,000 g for 30 min, after which the membrane containing pellet was re-suspended in 1:1^w/v 0.2 M potassium phosphate buffer, pH 7.4, and stored in 1 ml aliquots at − 40 °C.
FAAH-1 activity was assayed essentially as described previously. Briefly, rat liver homogenate was pre-incubated at 37 °C with shaking (50 × 10 rpm) for 10 min in 0.2 M phosphate buffer, pH 7.4 in 96-well microtitre plates (Thermo Scientific Inc., Waltham, USA) prior to substrate addition and incubation at 37 °C for 30 min. […] Substrate blank and a control containing 0.2 M phosphate buffer, pH 7.4, were incorporated into the experiments.
(§3) Effect of 500 μM concentration of NSAIDs (SIGMA-ALDRICH, Poole, UK) on each enzyme activity was analysed by removing the baseline line. Each specific activity was then plotted as percentage of control. Specific activity obtained at each inhibitor concentration for the concentration-inhibition curves were normalized and analysed using the inbuilt log (inhibitor) versus response variable slope (robust fit) and were constrained at the bottom (= 0.0%). Each specific activity was then plotted as percentage of the control. To determine the mode of inhibition, Vmax values were initially extrapolated from the (NH4)2SO4 standard curve plotted using the inbuilt second order polynomial (quadratic) Michaelis-Menten enzyme kinetics. These values were then adjusted using the protein concentrations of the preparations obtained from the Lowry protocol (Fig. SS1 and SS2).

FAAH-1 [2] = biological target: T1, FAAH-1; experiment: Mode of inhibition of rat liver FAAH-1 hydrolysis of oleamide and arachidonamide (Michaelis-Menten with inhibitor); format: biochemical; conditions: for Mode of inhibition of FAAH activity: Michaelis-Menten analysis, oleamide and arachidonamide substrates; for Vmax (nmol/min/mg protein): Control (no inhibitor), compound as substrate
Method: (§4) FAAH-1 activity was assayed essentially as described previously. Briefly, rat liver homogenate was pre-incubated at 37 °C with shaking (50 × 10 rpm) for 10 min in 0.2 M phosphate buffer, pH 7.4 in 96-well microtitre plates (Thermo Scientific Inc., Waltham, USA) prior to substrate addition and incubation at 37 °C for 30 min. The 100 μl total assay reaction mixtures were halted with an equivalent volume of o-phthaldehyde (OPA) developing solution (0.4 M potassium phosphate buffer, pH 11.5) and incubated further at 37 °C for 15 min before assessing fluorescence using a FLUOstar Galaxy (Excitation 390 nm, Emission 450–10 nm) (BMG LABTECH GmbH, Ortenberg, Germany). Substrate blank and a control containing 0.2 M phosphate buffer, pH 7.4, were incorporated into the experiments.
as §3, with “Data obtained were entered into a Microsoft Excel 2010 spread sheet and analysed with GraphPad Prism computer software programme (GraphPad Software Inc., San Diego, CA USA). Effect” for “Effect”
Unlike aspirin which is an irreversible inhibitor of COX enzymes, most other NSAIDs are reversible competitive inhibitors of the COX enzymes.
Data are mean ± SEM (Standard Error of the Mean) of four separate preparations (n = 4) conducted in triplicate

FAAH-1 [3] = biological target: T1, FAAH-1; experiment: Rat liver FAAH-1 hydrolysis of primary fatty acid amide substrates (Michaelis-Menten, OPA fluorescence ammonia assay); format: biochemical; conditions: for Km / Vmax: rat liver FAAH-1, compound as substrate, pH 7.4, mean ± SEM n = 4
Method: as §1, §2, §4
as §3, with “Data obtained were entered into a Microsoft Excel 2010 spread sheet and analysed with GraphPad Prism computer software programme (GraphPad Software Inc., San Diego, CA USA). Effect” for “Effect”
Fig. 1 Hydrolysis of oleamide (a), arachidonamide (b) and stearoylamide (c) by rat liver FAAH-1 activity. Rat liver FAAH-hydrolytic activity of each primary amide substrate in vitro, was assayed by quantification of ammonia released after hydrolysis. Ammonia generated in the presence of sulphite ions is reacted with alkaline o-phthaldehyde (OPA) to generate the stable fluorescent isoindole derivative (1-sulphonatoisoindole) which is quantified by fluorescent spectroscopy. Four separate experiments with three replicates on the same microtiter plate were conducted for each substrate using different rat liver preparations. Data are mean ± SEM (Standard Error of the Mean) of four separate preparations (n = 4) conducted in triplicate

rat brain FAAH-1 = test system: rat brain FAAH-1; design: method as in PMID 23240907; conditions: rat brain FAAH-1, pH 7.4 ref 52; cited from earlier work
FAAH = test system: FAAH; design: method as in ref 68 = [68]; 68. Dongdem JT Dawson SP Alexander SPH Characterization of [3-(3-carbamoylphenyl) phenyl] N-cyclohexyl carbamate, an inhibitor of FAAH: effect on rat liver FAAH and HEK293T-FAAH-2 deamination of oleam; conditions: cited from earlier work
[4] = test system: FAAH-1 in rat liver preparations; conditions: cited from earlier work
FAAH-1 in rat brain = test system: FAAH-1 in rat brain; design: method as in ref 41 = [41]; 41. Garle MJ, Clark JS and Alexander SPH. A fluorescence-derivatisation assay for fatty acid amide hydrolase activity. 2005; pA2 Online. E-journal of the British Pharmacological Society.; conditions: oleamide hydrolysis, rat brain ref 41; cited from earlier work
rat recombinant FAAH = test system: rat recombinant FAAH; design: method as in PMID 10571985; conditions: pH 9, oleamide hydrolysis ref 45; read-out: affinity (Km); cited from earlier work
[5] = rat liver oleamide hydrolase activity, NSAID 4.0 × 10^-6 to 1.024 × 10^-3 M in absolute ethanol, n = 4

SMILES: Cc1onc(-c2ccccc2)c1-c1ccc(S(N)(=O)=O)cc1 [Valdecoxib]
IC50 (FAAH-1 [1]; [5]): 1000 µM

SMILES: CCCCC/C=C\C/C=C\C/C=C\C/C=C\CCCC(N)=O [Arachidonamide]
Vmax (nmol/min/mg protein) (FAAH-1 [2]): 8.4 ± 1.2 nmol/min/mg protein | FAAH-1 capacity (Vmax) higher compared with oleamide (FAAH-1 [3]; rat liver FAAH-1): 12% | FAAH-1 capacity (Vmax) higher than that for stearoylamide (FAAH-1 [3]; rat liver FAAH-1): 75% | Km (FAAH-1 [3]): 44.9 ± 7 µM | Vmax (FAAH-1 [3]): 10.1 ± 3.0 nmol/min/mg protein

SMILES: CC(C)Cc1ccc(C(C)C(=O)O)cc1 (stereo not drawn) [Ibuprofen]
pIC50 (rat brain FAAH-1): 3.1

SMILES: Cc1c(N(C)CS(=O)(=O)[O-])c(=O)n(-c2ccccc2)n1C.[Na+] [Dipyrone]
pIC50 (M) (FAAH-1 [1]; [5]): 2.77 ± 0.07 M

SMILES: CCCCCCCCCCCCCCCCCC(N)=O [Stearoylamide]
Vmax (FAAH-1 [3]): 2.5 ± 0.6 nmol/min/mg protein | Km (FAAH-1 [3]; read-out: Km): 4.6 ± 0.8 µM

SMILES: COc1ccc2c(c1)c(CC(=O)O)c(C)n2C(=O)c1ccc(Cl)cc1 [Indomethacin]
pIC50 (rat brain FAAH-1): 4.18 | Mode of inhibition of FAAH activity (FAAH-1 [2]): non-competitive type inhibition | Vmax (nmol/min/mg protein) in presence of inhibitor (FAAH-1 [2]; substrate arachidonamide, + 200 μM inhibitor): 7.2 ± 0.9 nmol/min/mg protein | Vmax (nmol/min/mg protein) in presence of inhibitor (FAAH-1 [2]; substrate oleamide, + 200 μM inhibitor): 3.8 ± 0.4 nmol/min/mg protein

SMILES: CC1=C(CC(=O)O)c2cc(F)ccc2/C1=C\c1ccc([S+](C)[O-])cc1 (stereo not drawn) [Sulindac]
FAAH-1 oleamide hydrolase activity, % of control (FAAH-1 [1]): below 50 % of control | IC50 (FAAH-1 [1]; [5]): 224 µM

SMILES: NC(=O)c1cccc(-c2cccc(OC(=O)NC3CCCCC3)c2)c1 [URB597]
Mode of FAAH inhibition (FAAH): uncompetitive

SMILES: CCCCCCCC/C=C\CCCCCCCC(N)=O [Oleamide]
Vmax ([4]; oleamide hydrolysis, rat liver preparations ref 41): 15 nmol.min^− 1.mg protein^− 1 | Km ([4]; oleamide hydrolysis, rat liver preparations ref 41, read-out: Km): 129 µM | Vmax ([4]; rat liver FAAH-catalysed oleamide hydrolysis ref 44): 5.7 nmol.min^− 1.mg protein^− 1 | Km ([4]; rat liver FAAH-catalysed oleamide hydrolysis ref 44, read-out: affinity (Km)): 104 µM | Km (FAAH-1 in rat brain): 179 µM | Km (rat recombinant FAAH): 37 ± 7 µM | Vmax (nmol/min/mg protein) (FAAH-1 [2]): 4.6 ± 0.5 nmol/min/mg protein | Vmax (FAAH-1 [3]): 8.9 ± 1.1 nmol/min/mg protein | Km (FAAH-1 [3]; read-out: Km): 177 ± 15.5 µM

SMILES: CC1=C(CC(=O)O)c2cc(F)ccc2/C1=C\c1ccc(S(C)(=O)=O)cc1 [Sulindac sulphone]
IC50 (FAAH-1 [1]; [5]): 447 µM

SMILES: CC(=O)Nc1ccc(O)cc1 [Acetaminophen]
FAAH-1 oleamide hydrolase activity, % of control (FAAH-1 [1]): appeared to enhance enzyme activity

SMILES: CCO [ethanol]
FAAH-1 activity (%) (basal oleamide hydrolysis, % of control) (FAAH-1 [1]; 15% assay ethanol): 95 ± 1% | FAAH-1 activity (%) (basal oleamide hydrolysis, % of control) (FAAH-1 [1]; 20% assay ethanol): 78 ± 1% | FAAH-1 activity (%) (basal oleamide hydrolysis, % of control) (FAAH-1 [1]; 25% assay ethanol): 76 ± 4%

Continued, in another order:

FAAH-1 oleamide hydrolase activity, % of control (FAAH-1 [1]): complete inhibition | IC50 (FAAH-1 [1]; [5]): 269 µM | Mode of inhibition of FAAH activity (FAAH-1 [2]): non-competitive type inhibition | Vmax (nmol/min/mg protein) in presence of inhibitor (FAAH-1 [2]; substrate arachidonamide, + 100 μM inhibitor): 6.7 ± 1.0 nmol/min/mg protein | Vmax (nmol/min/mg protein) in presence of inhibitor (FAAH-1 [2]; substrate oleamide, + 100 μM inhibitor): 2.9 ± 0.1 nmol/min/mg protein
SMILES: Cc1ccc(Cl)c(Nc2ccccc2C(=O)O)c1Cl [Meclofenamic acid]

FAAH-1 oleamide hydrolase activity, % of control (FAAH-1 [1]): below 50 % of control
SMILES: CC(C(=O)O)c1ccc2c(c1)[nH]c1ccc(Cl)cc12 (stereo not drawn) [Carprofen]
pIC50 (rat brain FAAH-1): 4.10

FAAH-1 oleamide hydrolase activity, % of control (FAAH-1 [1]): below 50 % of control | IC50 (FAAH-1 [1]; [5]): 708 µM
SMILES: O=C(O)c1cc(-c2ccc(F)cc2F)ccc1O [Diflunisal]

FAAH-1 oleamide hydrolase activity, % of control (FAAH-1 [1]): below 50 % of control | IC50 (FAAH-1 [1]; [5]): 1230 µM
SMILES: O=C(c1ccccc1)c1ccc2n1CCC2C(=O)O (stereo not drawn) [Ketorolac]

FAAH-1 oleamide hydrolase activity, % of control (FAAH-1 [1]): below 50 % of control | IC50 (FAAH-1 [1]; [5]): 1260 µM
SMILES: O=C(O)Cc1ccccc1Nc1c(Cl)cccc1Cl [Diclofenac]

FAAH-1 oleamide hydrolase activity, % of control (FAAH-1 [1]): appeared to enhance enzyme activity
SMILES: CC(=O)Oc1ccccc1C(=O)O [acetyl salicylic acid]
